Data from the Kinase Knowledgebase extract (Sharma et al. 2016).

Target: CDK2 (UniProt P24941)
Test: Enzyme Assay

Ki | Structure (SMILES)
< 100 nM | Cc1cnc(Nc2cccc(C(F)(F)F)c2)nc1-c1c[nH]c(C(=O)N[C@H](CO)c2ccccc2)c1
100 to 1000 nM | Cc1cnc(NCc2ccccc2)nc1-c1c[nH]c(C(=O)N[C@H](CO)c2ccccc2)c1
100 to 1000 nM | Cc1cnc(Nc2cccc(F)c2)nc1-c1c[nH]c(C(=O)NC(CO)c2cccc(C(F)(F)F)c2)c1 (configuration not stated)
1000 to 20000 nM | COc1ccccc1Nc1ncc(C)c(-c2c[nH]c(C(=O)N[C@H](CO)c3ccccc3)c2)n1
100 to 1000 nM | Cc1cnc(Nc2ccccc2)nc1-c1c[nH]c(C(=O)NC(CO)c2cccc(C(F)(F)F)c2)c1 (configuration not stated)

Second part, the compound before the results:

Structure (SMILES) | Ki
Cc1cnc(Nc2ccc(OCc3ccccc3)cc2)nc1-c1c[nH]c(C(=O)N[C@H](CO)c2ccccc2)c1 | < 100 nM
CCNc1ncc(C)c(-c2c[nH]c(C(=O)N[C@H](CO)c3ccccc3)c2)n1 | 1000 to 20000 nM
Cc1cnc(NCC2CC2)nc1-c1c[nH]c(C(=O)N[C@H](CO)c2ccccc2)c1 | 1000 to 20000 nM
Cc1cnc(NC2(CO)CC2)nc1-c1c[nH]c(C(=O)N[C@H](CO)c2ccccc2)c1 | 100 to 1000 nM
Cc1cnc(N[C@@H](CO)c2ccccc2)nc1-c1c[nH]c(C(=O)N[C@H](CO)c2ccccc2)c1 | 100 to 1000 nM
Cc1cnc(NC2CC2)nc1-c1c[nH]c(C(=O)N[C@H](CO)c2ccccc2)c1 | 100 to 1000 nM
Cc1cnc(N[C@H]2CC[C@H](O)CC2)nc1-c1c[nH]c(C(=O)N[C@H](CO)c2ccccc2)c1 | < 100 nM
